Reference: ChEMBL document CHEMBL4219259, “Molecular Determinants Conferring the Stoichiometric-Dependent Activity of α-Conotoxins at the Human α9α10 Nicotinic Acetylcholine Receptor Subtype” (J Med Chem, 2018)
Peptide text beside a SMILES is read from it.

Key:
[1] = target: T1, Neuronal acetylcholine receptor; alpha9/alpha10 (Homo sapiens, UniProt Q9GZZ6+Q9UGM1); assay: Inhibition of human alpha9/alpha10 nACHR (1:1) expressed in Xenopus laevis oocyte assessed as inhibition of ACh induced channel current measured for 2 to 5 days at -80 mV holding potential by two electrode voltage clamp method
T1 sequence (Q9UGM1 whole entry): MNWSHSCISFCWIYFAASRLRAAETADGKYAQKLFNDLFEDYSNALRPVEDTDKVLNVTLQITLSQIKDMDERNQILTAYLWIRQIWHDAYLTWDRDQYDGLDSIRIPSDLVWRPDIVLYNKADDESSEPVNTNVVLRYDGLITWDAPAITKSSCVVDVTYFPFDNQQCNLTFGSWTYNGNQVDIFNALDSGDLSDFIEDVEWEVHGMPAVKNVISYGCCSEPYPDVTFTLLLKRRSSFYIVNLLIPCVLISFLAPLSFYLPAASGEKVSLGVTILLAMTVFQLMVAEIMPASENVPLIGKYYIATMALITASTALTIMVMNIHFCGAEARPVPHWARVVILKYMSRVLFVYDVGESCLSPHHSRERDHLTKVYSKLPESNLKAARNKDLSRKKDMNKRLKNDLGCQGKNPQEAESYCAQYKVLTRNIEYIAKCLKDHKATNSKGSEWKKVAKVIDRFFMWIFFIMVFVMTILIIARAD
T1 sequence (Q9GZZ6 whole entry): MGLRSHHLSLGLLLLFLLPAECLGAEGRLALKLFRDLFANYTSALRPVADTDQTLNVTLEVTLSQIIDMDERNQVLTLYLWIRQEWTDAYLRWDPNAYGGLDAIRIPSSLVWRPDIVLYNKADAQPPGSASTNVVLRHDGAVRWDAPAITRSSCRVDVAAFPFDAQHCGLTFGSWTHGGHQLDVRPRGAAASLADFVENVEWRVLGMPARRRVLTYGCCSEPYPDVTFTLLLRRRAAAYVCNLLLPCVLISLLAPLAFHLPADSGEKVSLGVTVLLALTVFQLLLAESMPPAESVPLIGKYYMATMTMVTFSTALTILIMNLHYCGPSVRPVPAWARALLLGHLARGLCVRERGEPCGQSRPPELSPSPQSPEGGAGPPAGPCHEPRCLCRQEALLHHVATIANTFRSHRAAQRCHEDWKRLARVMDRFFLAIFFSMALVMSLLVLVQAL

[2] = target: T2, Neuronal acetylcholine receptor; alpha9/alpha10 (Homo sapiens) (UniProt Q9UGM1+Q9GZZ6); assay: Inhibition of human alpha9/alpha10 nACHR (3:2) expressed in Xenopus laevis oocyte assessed as inhibition of ACh induced channel current at 1 uM measured for 2 to 5 days at -80 mV holding potential by two electrode voltage clamp method
[3] = target: T2, Neuronal acetylcholine receptor; alpha9/alpha10 (Homo sapiens); assay: Inhibition of human alpha9/alpha10 nACHR (4:1) expressed in Xenopus laevis oocyte assessed as inhibition of ACh induced channel current at 1 uM measured for 2 to 5 days at -80 mV holding potential by two electrode voltage clamp method
[4] = target: T2, Neuronal acetylcholine receptor; alpha9/alpha10 (Homo sapiens); assay: Inhibition of human alpha9/alpha10 nACHR (2:3) expressed in Xenopus laevis oocyte assessed as inhibition of ACh induced channel current at 1 uM measured for 2 to 5 days at -80 mV holding potential by two electrode voltage clamp method
[5] = target: T2, Neuronal acetylcholine receptor; alpha9/alpha10 (Homo sapiens); assay: Inhibition of human alpha9 N154G mutant/alpha10 nACHR (1:3) expressed in Xenopus laevis oocyte assessed as inhibition of ACh induced channel current at 1 uM measured for 2 to 5 days at -80 mV holding potential by two electrode voltage clamp method
[6] = target: T2, Neuronal acetylcholine receptor; alpha9/alpha10 (Homo sapiens); assay: Inhibition of human alpha9 N154G mutant/alpha10 nACHR (3:1) expressed in Xenopus laevis oocyte assessed as inhibition of ACh induced channel current at 1 uM measured for 2 to 5 days at -80 mV holding potential by two electrode voltage clamp method
[7] = target: T1, Neuronal acetylcholine receptor; alpha9/alpha10; assay: Inhibition of human alpha9/alpha10 nACHR (1:3) expressed in Xenopus laevis oocyte assessed as inhibition of ACh induced channel current measured for 2 to 5 days at -80 mV holding potential by two electrode voltage clamp method
[8] = target: T1, Neuronal acetylcholine receptor; alpha9/alpha10; assay: Inhibition of human alpha9/alpha10 nACHR (3:1) expressed in Xenopus laevis oocyte assessed as inhibition of ACh induced channel current measured for 2 to 5 days at -80 mV holding potential by two electrode voltage clamp method
[9] = target: T3, Neuronal acetylcholine receptor; alpha9/alpha10 (Homo sapiens, UniProt Q9GZZ6+Q9UGM1, N154G); assay: Inhibition of human alpha9 N154G mutant/alpha10 nACHR (1:3) expressed in Xenopus laevis oocyte assessed as inhibition of ACh induced channel current measured for 2 to 5 days at -80 mV holding potential by two electrode voltage clamp method
T3 sequence (Q9GZZ6 whole entry, looked up, stated change not applied): as the sequence (Q9GZZ6 whole entry) above
T3 sequence (Q9UGM1 whole entry, looked up, stated change not applied): as the sequence (Q9UGM1 whole entry) above

[10] = target: T3, Neuronal acetylcholine receptor; alpha9/alpha10; assay: Inhibition of human alpha9 N154G mutant/alpha10 nACHR (3:1) expressed in Xenopus laevis oocyte assessed as inhibition of ACh induced channel current measured for 2 to 5 days at -80 mV holding potential by two electrode voltage clamp method
[11] = target: Neuronal acetylcholine receptor; alpha9/alpha10 (Homo sapiens, UniProt Q9GZZ6+Q9UGM1, G154N); assay: Inhibition of human alpha9/alpha10 G154N mutant nACHR (1:3) expressed in Xenopus laevis oocyte assessed as inhibition of ACh induced channel current measured for 2 to 5 days at -80 mV holding potential by two electrode voltage clamp method
Neuronal acetylcholine receptor; alpha9/alpha10 (Homo sapiens, UniProt Q9GZZ6+Q9UGM1, G154N), sequence (Q9GZZ6 whole entry, looked up, stated change not applied): as the sequence (Q9GZZ6 whole entry) above
Neuronal acetylcholine receptor; alpha9/alpha10 (Homo sapiens, UniProt Q9GZZ6+Q9UGM1, G154N), sequence (Q9UGM1 whole entry, looked up, stated change not applied): as the sequence (Q9UGM1 whole entry) above

Homo sapiens [12] = species on record: Homo sapiens; assay: Ratio of IC50 for human alpha9/alpha10 nACHR (1:3) to IC50 for human alpha9 N154G mutant/alpha10 nACHR (1:3)
Homo sapiens [13] = species on record: Homo sapiens; assay: Ratio of IC50 for human alpha9/alpha10 nACHR (3:1) to IC50 for human alpha9 N154G mutant/alpha10 nACHR (3:1)

CC[C@H](C)[C@@H]1NC(=O)[C@H](CCC(=O)O)NC(=O)[C@@H]2CCCN2C(=O)[C@H](Cc2ncc[nH]2)NC(=O)[C@H](CC(=O)O)NC(=O)[C@H](Cc2ccc(O)cc2)NC(=O)[C@H](CC(N)=O)NC(=O)[C@@H]2CSSC[C@H](NC(=O)CN)C(=O)N[C@@H](CSSC[C@@H](C(N)=O)NC1=O)C(=O)N[C@@H](CO)C(=O)N[C@@H](CC(=O)O)C(=O)N1CCC[C@H]1C(=O)N[C@@H](CCCNC(=N)N)C(=O)N2 (HELM PEPTIDE1{G.C.C.S.D.P.R.C.N.Y.D.[O=C([C@H](Cc1ncc[nH]1)N[*:1])[*:2]].P.E.I.C.[am]}$PEPTIDE1,PEPTIDE1,2:R3-8:R3|PEPTIDE1,PEPTIDE1,3:R3-16:R3$$$V2.0)
IC50 [1]: 1 µM
inhibition [2]: 65.8%
inhibition [3]: 65.8%
inhibition [4]: 25.5%
inhibition [5]: 19.5%
inhibition [6]: 21.8%
IC50 [7]: 3.57 µM
IC50 [8]: 0.75 µM
IC50 [9]: 11.3 µM
IC50 [10]: 17 µM
IC50 [11]: 0.75 µM
Ratio IC50 (Homo sapiens [12]): 3
Ratio IC50 (Homo sapiens [13]): 23

CC[C@H](C)[C@@H]1NC(=O)[C@H](CC(N)=O)NC(=O)[C@@H]2CCCN2C(=O)[C@H](Cc2ncc[nH]2)NC(=O)[C@H](CC(=O)O)NC(=O)[C@H](Cc2ccc(O)cc2)NC(=O)[C@H](CC(N)=O)NC(=O)[C@@H]2CSSC[C@H](NC(=O)CN)C(=O)N[C@@H](CSSC[C@@H](C(N)=O)NC1=O)C(=O)N[C@@H](CO)C(=O)N[C@@H](CC(=O)O)C(=O)N1CCC[C@H]1C(=O)N[C@@H](CCCNC(=N)N)C(=O)N2 (HELM PEPTIDE1{G.C.C.S.D.P.R.C.N.Y.D.[O=C([C@H](Cc1ncc[nH]1)N[*:1])[*:2]].P.N.I.C.[am]}$PEPTIDE1,PEPTIDE1,2:R3-8:R3|PEPTIDE1,PEPTIDE1,3:R3-16:R3$$$V2.0)
IC50 [7]: 17.5 µM
IC50 [8]: 10.8 µM
IC50 [9]: 10.2 µM
IC50 [10]: 8.59 µM

N=C(N)NCCC[C@@H]1NC(=O)[C@H](Cc2ccc(O)cc2)NC(=O)[C@H](CCCNC(=N)N)NC(=O)[C@@H]2CSSC[C@H](NC(=O)CN)C(=O)N[C@@H](CSSC[C@@H](C(N)=O)NC1=O)C(=O)N[C@@H](CO)C(=O)N[C@@H](CC(=O)O)C(=O)N1CCC[C@H]1C(=O)N[C@@H](CCCNC(=N)N)C(=O)N2 (HELM PEPTIDE1{G.C.C.S.D.P.R.C.R.Y.R.C.[am]}$PEPTIDE1,PEPTIDE1,2:R3-8:R3|PEPTIDE1,PEPTIDE1,3:R3-12:R3$$$V2.0)
IC50 [1]: 249 µM

CC(C)[C@@H]1NC(=O)[C@H](CO)NC(=O)[C@@H]2CSSC[C@H](NC(=O)CN)C(=O)N[C@@H](CSSC[C@@H](C(N)=O)NC(=O)[C@H](CCCCN)NC(=O)[C@H](CC(N)=O)NC(=O)[C@@H]3CCCN3C(=O)[C@H](Cc3ncc[nH]3)NC(=O)[C@H](CC(=O)O)NC1=O)C(=O)N[C@@H](CO)C(=O)N[C@@H](CC(=O)O)C(=O)N1CCC[C@H]1C(=O)N[C@@H](CCCNC(=N)N)C(=O)N2 (HELM PEPTIDE1{G.C.C.S.D.P.R.C.S.V.D.[O=C([C@H](Cc1ncc[nH]1)N[*:1])[*:2]].P.N.K.C.[am]}$PEPTIDE1,PEPTIDE1,2:R3-8:R3|PEPTIDE1,PEPTIDE1,3:R3-16:R3$$$V2.0)
IC50 [7]: 13.2 µM
IC50 [8]: 9.3 µM
IC50 [9]: 13 µM
IC50 [10]: 15.2 µM
